Test results taken from patent US12043622B2, “Crystal form of compound for inhibiting the activity of CDK4/6 and use thereof” (Betta Pharmaceuticals Co., Ltd., priority 2019, dated 2024).
Read-outs that look alike come from different tables or passages of the source. Each block holds one compound with its values, some of them ahead of it.

Columns and labels:
[1] = Pharmacokinetic experiment in SD rats, plasma by LC-MS/MS; type: in vivo; conditions: both sexes, Sprague-Dawley (SD), rat, PO, 30 mg/kg
Experimental: A total of 12 SD rats were divided into two groups, 6 in each group, each half of male and female.
In the above plasma sample, protein was precipitated by acetonitrile, the supernatant was diluted 3 times with water, and 5 μL was detected by LC-MS/MS, the results of experiment was shown in table 10: […]

[2] = Solubility in water at room temperature; type: physicochemical; conditions: for Classification of solubility: classes of the Chinese Pharmacopoeia (2015); for solubility: thermodynamic from solid
[3] = Stability of the crystal form, checked by XRD; type: physicochemical
Experimental: In one embodiment of the invention, XRD analysis of the small sample (batch number: 1072P04-A14S01) was performed by SoliPharmausing Bruker D8 Advance Diffractometer.

[4] = Crystal form long-term stability, impurities by HPLC; type: physicochemical; conditions: for Content > 0.1% Number of unknown impurities (s) / Maximum single impurity content (%) / Total impurity content (%): 25° C.±2° C., RH 60%±10%, HPLC
[5] = Solid form conversion of amorphous and metastable forms; type: physicochemical; conditions: for Solid form stability under moisture: water/moisture, room temperature
CDK2/cyclin E = CDK2/cyclin E (Homo sapiens, UniProt P24941); assay: CDK subtype selectivity, 33P-ATP radiometric kinase assay; type: biochemical
From the text: (§1) The mechanism of this method is shown in formula (IV).
(§2) Data was processed with Prism4 Software (GraphPad), and the curve fitting formula was: Y=Bottom+(Top−Bottom)/(1+10^((Log IC50−X)*HillSlope)); wherein, Y is percent inhibition (%); X is logarithm of concentration of the inhibitor.

CDK9/cyclin T1 = CDK9/cyclin T1 (Homo sapiens, UniProt P50750); assay: as above; type: biochemical
Sequence of CDK9/cyclin T1 (P50750 whole entry, species assumed): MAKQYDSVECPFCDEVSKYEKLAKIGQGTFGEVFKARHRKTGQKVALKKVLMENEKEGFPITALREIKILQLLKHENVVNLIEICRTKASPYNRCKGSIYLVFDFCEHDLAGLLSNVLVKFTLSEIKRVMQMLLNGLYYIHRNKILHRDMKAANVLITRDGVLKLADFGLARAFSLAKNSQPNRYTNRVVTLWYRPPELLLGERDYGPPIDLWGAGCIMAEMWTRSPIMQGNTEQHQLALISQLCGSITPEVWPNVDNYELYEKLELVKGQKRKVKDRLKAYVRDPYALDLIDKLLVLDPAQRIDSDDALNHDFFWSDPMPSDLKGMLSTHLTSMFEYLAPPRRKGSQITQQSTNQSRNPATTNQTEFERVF
Sequence of CDK9/cyclin T1 (O60563 whole entry partner, species assumed): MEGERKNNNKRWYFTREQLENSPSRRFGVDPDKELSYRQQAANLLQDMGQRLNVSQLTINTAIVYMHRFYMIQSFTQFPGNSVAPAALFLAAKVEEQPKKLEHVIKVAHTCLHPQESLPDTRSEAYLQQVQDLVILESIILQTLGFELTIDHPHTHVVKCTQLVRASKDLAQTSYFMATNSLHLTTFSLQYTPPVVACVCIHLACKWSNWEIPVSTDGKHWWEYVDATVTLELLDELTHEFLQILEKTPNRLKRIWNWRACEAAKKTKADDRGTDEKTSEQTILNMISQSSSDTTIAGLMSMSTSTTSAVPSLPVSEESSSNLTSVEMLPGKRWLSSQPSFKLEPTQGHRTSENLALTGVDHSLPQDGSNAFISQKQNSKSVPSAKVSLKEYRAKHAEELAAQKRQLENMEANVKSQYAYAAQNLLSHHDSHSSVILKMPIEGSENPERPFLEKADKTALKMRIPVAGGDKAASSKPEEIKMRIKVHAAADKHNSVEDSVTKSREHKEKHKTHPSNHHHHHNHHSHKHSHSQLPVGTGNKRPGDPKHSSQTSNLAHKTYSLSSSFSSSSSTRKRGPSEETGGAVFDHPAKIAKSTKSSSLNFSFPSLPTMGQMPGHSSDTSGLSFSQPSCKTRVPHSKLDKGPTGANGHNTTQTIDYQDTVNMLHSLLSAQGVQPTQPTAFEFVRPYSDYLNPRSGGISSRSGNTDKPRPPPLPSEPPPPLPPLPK
From the text: as §1, §2

[6] = Dynamic moisture sorption (DVS); type: physicochemical
From the text: The instruments and methods of Dynamic moisture adsorption in the present invention was shown in table 7, the results of DVS was shown in table 8.

Structure (SMILES): CCN1CCN(Cc2ccc(Nc3ncc(F)c(-c4cc(F)c5nc6n(c5c4)[C@H](C)CCC6)n3)nc2)CC1.O=C(O)C(O)C(O)C(=O)O [crystal form A of compound II]
- AUC(0-t) [1]: 47000 ng·h/mL
- Classification of solubility [2]: Readily-soluble
- solubility [2]: 100 to 200 mg/mL
- XRD pattern after storage (crystal form stability) ([3]; 25° C., 60% RH, 10 days): not changed
- XRD pattern after storage (crystal form stability) ([3]; 25° C., 60% RH, 10 days, listed as crystal form A of the compound II): unchanged
- XRD pattern after storage (crystal form stability) ([3]; 40° C., 75% RH, 10 days): not changed
- XRD pattern after storage (crystal form stability) ([3]; 40° C., 75% RH, 10 days, listed as crystal form A of the compound II): unchanged
- XRD pattern after storage (crystal form stability) ([3]; dried at 80° C., 24 h): not changed
- XRD pattern after storage (crystal form stability) ([3]; dried at 80° C., 24 h, listed as crystal form A of the compound II): unchanged
- Content > 0.1% Number of unknown impurities (s) ([4]; 0 month): 0
- Maximum single impurity content (%) ([4]; 0 month): 0.05%
- Total impurity content (%) ([4]; 0 month): 0.10%
- Content > 0.1% Number of unknown impurities (s) ([4]; 3 month): 0
- Maximum single impurity content (%) ([4]; 3 month): 0.05%
- Total impurity content (%) ([4]; 3 month): 0.13%
- Content > 0.1% Number of unknown impurities (s) ([4]; 18 month): 0
- Maximum single impurity content (%) ([4]; 18 month): 0.06%
- Total impurity content (%) ([4]; 18 month): 0.21%
- Amount of the impurities produced ([4]; after 18 months): less than 0.1%

Structure (SMILES): CCN1CCN(Cc2ccc(Nc3ncc(F)c(-c4cc(F)c5nc6n(c5c4)[C@H](C)CCC6)n3)nc2)CC1.O=C(O)C(O)C(O)C(=O)O [amorphous form of compound II]
- Solid form stability under moisture [5]: readily converted to the crystal form B of compound II
- Solid form stability under moisture ([5]; listed as amorphous form of Compound II): readily forms Form B of Compound II

Structure (SMILES): CCN1CCN(Cc2ccc(Nc3ncc(F)c(-c4cc(F)c5nc6n(c5c4)[C@H](C)CCC6)n3)nc2)CC1 [compound 2b]
- IC50 (CDK2/cyclin E; read-out: IC50 CDK2/cyclin E): 441 nM
- IC50 (CDK9/cyclin T1; read-out: IC50 CDK9/cyclin T1): 649 nM

Structure (SMILES): CCN1CCN(Cc2ccc(Nc3ncc(F)c(-c4cc(F)c5nc6n(c5c4)[C@H](C)CCC6)n3)nc2)CC1 [compound I, (R)—N-(5-((4-ethylpiperazin-1-yl)methyl)pyridin-2-yl)-5-fluoro-4-(6-fluoro-1-methyl-1,2,3,4-tetrahydrobenzo[4,5]imidazo[1,2-a]pyridin-8-yl)pyrimidin-2-amine]
- IC50 (CDK2/cyclin E; stated jointly for CDK1/2/7/9, read-out: IC50 for inhibiting CDK2): > 400 nM
- IC50 (CDK9/cyclin T1; stated jointly for CDK1/2/7/9, read-out: IC50 for inhibiting CDK9): > 400 nM
- AUC(0-t) [1]: 27700 ng·h/mL
- Classification of solubility [2]: Very little soluble
- solubility [2]: < 1 mg/mL
- Content > 0.1% Number of unknown impurities (s) ([4]; 0 month): 0
- Maximum single impurity content (%) ([4]; 0 month): 0.04%
- Total impurity content (%) ([4]; 0 month): 0.11%
- Content > 0.1% Number of unknown impurities (s) ([4]; 3 month): 0
- Maximum single impurity content (%) ([4]; 3 month): 0.10%
- Total impurity content (%) ([4]; 3 month): 0.17%
- Maximum single impurity content (%) ([4]; 18 month): 0.22%
- Total impurity content (%) ([4]; 18 month): 1.0%

Structure (SMILES): CCN1CCN(Cc2ccc(Nc3ncc(F)c(-c4cc(F)c5nc6n(c5c4)[C@H](C)CCC6)n3)nc2)CC1.CS(=O)(=O)O [amorphous form of compound III]
- Solid form stability on scale-up ([5]; scaled up to 50 mg): unstable

Further lines, results first:

- Classification of solubility [2]: soluble
- solubility [2]: 50 to 100 mg/mL
- XRD pattern after storage (crystal form stability) ([3]; 25° C., 60% RH, 10 days): changed
- XRD pattern after storage (crystal form stability) ([3]; 40° C., 75% RH, 10 days): changed
- XRD pattern after storage (crystal form stability) ([3]; dried at 80° C., 24 h, listed as crystal form D of the compound III): unchanged
Structure (SMILES): CCN1CCN(Cc2ccc(Nc3ncc(F)c(-c4cc(F)c5nc6n(c5c4)[C@H](C)CCC6)n3)nc2)CC1.CS(=O)(=O)O [crystal form D of compound III]

- Weight change in the range of 0% RH-80% RH [6]: 16.6%
- XRD pattern after storage (crystal form stability) ([3]; 25° C., 60% RH, 10 days): changed
- XRD pattern after storage (crystal form stability) ([3]; 40° C., 75% RH, 10 days): changed
- XRD pattern after storage (crystal form stability) ([3]; dried at 80° C., 24 h, listed as crystal form F the compound III): changed
Structure (SMILES): CCN1CCN(Cc2ccc(Nc3ncc(F)c(-c4cc(F)c5nc6n(c5c4)[C@H](C)CCC6)n3)nc2)CC1.CS(=O)(=O)O [crystal form F of compound III]

- Weight change in the range of 0% RH-80% RH [6]: 5.5%
- Solid form stability on heating ([5]; heated to 180° C.): could be converted to crystal form A
Structure (SMILES): CCN1CCN(Cc2ccc(Nc3ncc(F)c(-c4cc(F)c5nc6n(c5c4)[C@H](C)CCC6)n3)nc2)CC1.O=C(O)C(O)C(O)C(=O)O [crystal form B of compound II]
